A compilation of properties of binary mixtures (doi:10.1016/j.electacta.2009.09.024)

Assay: xn = mol fraction of the nth substance listed
Details: 100 kPa, x2 = 0.25

O=S(=O)([N-]S(=O)(=O)C(F)(F)F)C(F)(F)F.[Rb+] + O=S(=O)([N-]S(=O)(=O)C(F)(F)F)C(F)(F)F.[Li+]
Details	electrical conductivity [S/m]	viscosity [mPa·s]
442.2 K	0.822	–
442.5 K	–	63.2
452.2 K	1.05	–
462.7 K	1.28	–
473.7 K	1.52	–
473.9 K	–	28.1
482.9 K	1.86	–
492.3 K	2.15	–
492.6 K	–	17.9
502.4 K	2.48	–
502.5 K	–	14.3
512.8 K	–	11.8
523.1 K	3.2	–
543.3 K	4.03	–
543.5 K	–	7.21
551.9 K	4.33	–
552.5 K	–	6.61
561.2 K	4.79	–
561.8 K	–	5.8
571.1 K	5.08	–
